Data: US20090137664A1, “SAURURUS CERNUUS COMPOUNDS THAT INHIBIT CELLULAR RESPONSES TO HYPOXIA” (priority 2003, published 2009)
Where two headings read alike, the source gives them in different places.

How the values were obtained:
HIF-1 [1] = assay: pTK-HRE3-luc reporter assay, hypoxia-induced HIF-1 activation in T47D cells
secreted VEGF protein [2] = assay: hypoxic induction of secreted VEGF protein in T47D cells (ELISA); format: cell-based, human; settings: for concentration at which hypoxic induction of secreted VEGF protein is completely blocked / inhibition of VEGF protein levels relative to the hypoxia-induced positive control: 12-well; for inhibition of VEGF protein levels relative to the hypoxia-induced positive control: p<0.01; for reduction of secreted VEGF protein induced by hypoxia: 96-well, 1 at 100 nM, 2 at 10 nM, PD98059 at 100 μM
Experimental: (§1) The effects of compounds 1 and 2 on hypoxic induction of secreted VEGF protein are examined in T47D cells. Exponentially grown T47D cells are plated at the density of 30,000 cells/well into 96-well plates. Compound treatment and hypoxic exposure are the same as described. Following incubation, the concentration of secreted VEGF protein in the conditioned media is determined by ELISA (R & D Systems) and the data normalized by the number of viable cells. Results shown in FIG. 4 are averages from a representative experiment performed in quadruplicate, the bars represent standard error. An asterisk (*) indicates the level of significance (p<0.01) relative to the hypoxic control, two asterisks (**) (p<0.0001), and no asterisk indicates no statistical difference (ANOVA and Fisher's PLSD post hoc test).
As discussed earlier, one important HIF-1 target gene is VEGF, a key factor for tumor angiogenesis. Compounds that can inhibit both HIF-1 activation and the production of secreted VEGF protein represent potential efficacious chemotherapeutic agents that inhibit both tumor survival and hypoxia induced angiogenesis. The effects of four active examples (compounds 2, 3, 4, and 5) on hypoxic induction of secreted VEGF protein are examined in T47D cells and the data are presented in FIG. 9. Exponentially grown T47D cells are plated at the density of 356,000 cells/well into 12-well plates. Compound treatment and hypoxic exposure are the same as described. Following incubation, the concentration of secreted VEGF protein in the conditioned media is determined by ELISA (R & D Systems) and the data normalized by the number of viable cells. […] Hypoxic exposure leads to a 2-fold increase in the level of secreted VEGF protein. […] The level of significance (p<0.01) is determined by ANOVA and Fisher's PLSD post hoc test. The exemplary compounds 2, 3, and 4 all completely block hypoxic induction of secreted VEGF protein at concentrations as low as 10 nM. The exemplary compound 5 inhibits the hypoxic induction by 60% at 10 nM, and completely blocks at 100 nM. When tested at 100 nM, none of the compounds interfere with the ELISA assay using VEGF standard (no greater than 15% difference).

[3] = T47D cell viability / cytotoxicity; format: cell-based, human; settings: human; 100 μM; read-out: reduction of T47D cell viability
HIF-1β protein = assay: Western blot, HIF-1β protein in T47D nuclear extract; format: cell-based, human
Experimental: Due to the low abundance of HIF-1α protein in whole cell extract, nuclear extract is prepared and the level of HIF-1α protein in the nuclear extract determined by Western blot. Briefly, exponentially grown T47D cells are exposed to compound 2 for 30 minutes. […] Nuclear extracts are prepared from control and treated cells, separated on a SDS/PAGE gel, the separated proteins transferred to a nitrocellulose membrane, incubated with the primary antibodies (anti-HIF-1α, and anti-HIF-1β monoclonal antibodies, Novus Biologicals), secondary antibody biotinylated anti-mouse immunoglobulin G and Vectastain ABC reagent (Vector Laboratories), and developed using ECL reagents (Amersham Biosciences). […] No change in HIF-1β protein level is observed across the treatments. It is reasonable to conclude that the selectivity of compound 2 towards hypoxia-activated HIF-1 is caused by selective blockade of the hypoxic induction of HIF-1 protein.

secreted VEGF protein [4] = assay: induction of secreted VEGF protein by 1,10-phenanthroline in T47D cells (ELISA); format: cell-based, human; settings: 10 μM, 16 hr
Experimental: Cell plating and compound treatment is similar to those described earlier for hypoxic conditions. […] At the end of the incubation, the concentration of secreted VEGF protein in the conditioned media is determined by ELISA and the data normalized by the number of viable cells.

T47D cells = assay: T47D cell viability / cytotoxicity; format: cell-based, human
HIF-1 [5] = assay: pTK-HRE3-luc reporter assay, 1,10-phenanthroline-induced HIF-1 activation in T47D cells; format: cell-based; settings: Homo sapiens, read-out: inhibition of HIF-1 activation by 1,10-phenanthroline, 1 μM
Excerpt: Iron chelators and transition metals (such as cobalt and nickel) can activate HIF-1 and have been used as chemical hypoxia mimetics. […] The expression of the HIF-1α subunit quantitatively determines HIF-1 biological activity (activation of transcription).

[6] = molecular target: T1, recombinant VEGF protein standard (Homo sapiens, UniProt P15692); assay: interference with the VEGF ELISA using VEGF standard
T1 construct: purchased R & D Systems
T1 sequence (P15692 27-191 isoform P15692-4): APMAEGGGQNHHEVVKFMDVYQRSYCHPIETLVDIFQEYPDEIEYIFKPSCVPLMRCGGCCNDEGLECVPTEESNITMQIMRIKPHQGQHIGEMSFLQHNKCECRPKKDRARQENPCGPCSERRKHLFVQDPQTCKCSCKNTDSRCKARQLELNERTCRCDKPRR
Experimental: as §1
As discussed earlier, one important HIF-1 target gene is VEGF, a key factor for tumor angiogenesis. Compounds that can inhibit both HIF-1 activation and the production of secreted VEGF protein represent potential efficacious chemotherapeutic agents that inhibit both tumor survival and hypoxia induced angiogenesis. […] Following incubation, the concentration of secreted VEGF protein in the conditioned media is determined by ELISA (R & D Systems) and the data normalized by the number of viable cells. […] The level of significance (p<0.01) is determined by ANOVA and Fisher's PLSD post hoc test. […]

pGL3 Control = assay: luciferase expression from control plasmid pGL3 Control; format: cell-based, human
Experimental: The chemical structures of active compounds 1 and 2 are shown above. Compound 2 is the known compound manassantin B and 1 is a novel compound of the present invention. […] Similar results are obtained from separate experiments. The IC50 is 3 nM for 2 and 30 nM for 1. Complete inhibition is observed at 10 nM for 2 and 100 nM for 1.

Structure (SMILES): COc1ccc(C(O)C(C)Oc2ccc(C3OC(c4ccc(OC(C)C(O)c5ccc6c(c5)OCO6)c(OC)c4)C(C)C3C)cc2OC)cc1OC (stereo not drawn) [Compound 4]
- concentration at which complete inhibition of hypoxic activation of HIF-1 is observed (HIF-1 [1]; T47D, pHRE-luc assay): 10 nM
- concentration at which hypoxic induction of secreted VEGF protein is completely blocked (secreted VEGF protein [2]): 10 nM
- inhibition of VEGF protein levels relative to the hypoxia-induced positive control (secreted VEGF protein [2]): significantly inhibit

Structure (SMILES): O=c1c(-c2ccc(O)cc2)coc2cc(O)cc(O)c12 [genistein, reference compound]
- concentration for 70% inhibition of hypoxic activation of HIF-1 (HIF-1 [1]): 10 µM
- IC50 (HIF-1 [1]; Homo sapiens, T47D, 16 h, read-out: IC50 for inhibition of hypoxia-induced HIF-1 activation): 1000 nM
- cytotoxicity at 100 μM [3]: 50%

Structure (SMILES): COc1ccc(C(O)C(C)Oc2ccc(C3OC(c4ccc(OC)c(OC)c4)C(C)C3C)cc2OC)cc1OC (stereo not drawn) [Compound 5]
- concentration at which complete inhibition of hypoxic activation of HIF-1 is observed (HIF-1 [1]; T47D, pHRE-luc assay): 100 nM
- concentration at which hypoxic induction of secreted VEGF protein is completely blocked (secreted VEGF protein [2]): 100 nM
- inhibition of VEGF protein levels relative to the hypoxia-induced positive control (secreted VEGF protein [2]): significantly inhibit
- inhibition at 0.01 µM (secreted VEGF protein [2]; Homo sapiens, 10 nM): 60%

Structure (SMILES): c1cnc2c(c1)ccc1cccnc12 [1,10-phenanthroline, reference compound]
- HIF-1β protein level (HIF-1β protein): no significant effect
- secreted VEGF protein level in T47D cells (secreted VEGF protein [4]): significantly induces

Structure (SMILES): COc1ccc(C(O)C(C)Oc2ccc(C3OC(c4ccc(OC(C)C(O)c5ccc(OC)c(OC)c5)c(OC)c4)C(C)C3C)cc2OC)cc1OC (stereo not drawn) [Compound 3]
- concentration at which complete inhibition of hypoxic activation of HIF-1 is observed (HIF-1 [1]; T47D, pHRE-luc assay): 10 nM
- concentration at which hypoxic induction of secreted VEGF protein is completely blocked (secreted VEGF protein [2]): 10 nM
- inhibition of VEGF protein levels relative to the hypoxia-induced positive control (secreted VEGF protein [2]): significantly inhibit

Structure (SMILES): COc1cccc(-c2cc(=O)c3ccccc3o2)c1N [PD98059, reference compound]
- concentration for 70% inhibition of hypoxic activation of HIF-1 (HIF-1 [1]): 10 µM
- concentration at which hypoxic activation of HIF-1 is completely inhibited (HIF-1 [1]; T47D, pHRE-luc assay): 100 µM
- IC50 (HIF-1 [1]; read-out: IC50 for inhibition of hypoxia-induced HIF-1 activation, T47D cells, hypoxic conditions 16 hr): 2000 nM
- cytotoxicity (T47D cells): no significant cytotoxicity
- reduction of secreted VEGF protein induced by hypoxia (secreted VEGF protein [2]): only 1 and 2 treatments lead to statistically significant reduction

Structure (SMILES): COc1cc(C(O)C(C)Oc2ccc(C3OC(c4ccc(OC(C)C(O)c5ccc6c(c5)OCO6)c(OC)c4)C(C)C3C)cc2OC)ccc1O (stereo not drawn) [Compound 1]
- inhibition at 1 µM (HIF-1 [5]): 45%
- IC50 (HIF-1 [1]; Homo sapiens, T47D, read-out: IC50, inhibition of hypoxic activation of HIF-1): 30 nM
- concentration at which complete inhibition of hypoxic activation of HIF-1 is observed (HIF-1 [1]; T47D, pHRE-luc assay): 100 nM
- interference with the ELISA assay [6]: neither compound interferes
- luciferase expression from the pGL3-Control plasmid (pGL3 Control; 1,10-phenanthroline experiment (FIG. 5)): Neither compound exerts significant effect
- luciferase expression from the control plasmid (pGL3 Control) (pGL3 Control; hypoxia experiment (FIG. 3)): No statistically significant difference
- reduction of secreted VEGF protein induced by hypoxia (secreted VEGF protein [2]): statistically significant reduction
